Literature values, collected in patent US20130018223A1, “METHOD FOR TIMING A COLONOSCOPY” (priority 2011, published 2013).

## [O]=[Mg] [Magnesium oxide]
  solubility in alcohol: not soluble
